In experiment [1] the test system is pathogenic Clostridium sp. As to conditions: cited from earlier work.
The test system of another experiment is C. perfringens. The experiment can be described thus: microbe, parasite or virus in culture. As to conditions: Clostridium perfringens, read-out: minimum inhibitory concentration. It is filed as cell-based.

Values after ≈ are worked out from the molar mass of the structure shown.

Consider ruminococcin A, for which the “activity against pathogenic Clostridium sp.” value in experiment [1] was “active”.
Regarding `Cc1ncc([N+](=O)[O-])n1CCO` [metronidazole], the MIC in the experiment on C. perfringens worked out at 25 µg/mL (≈ 146 µM).

These data come from patent US8697636B2 (priority 2007, dated 2014).
